Reference: patent US9846168B2, “Fluorescent metal ion indicators with large stokes shifts” (LIFE TECHNOLOGIES CORPORATION, priority 2004, dated 2017)

Key:
[1] = Absorption and fluorescence emission spectra of calcium binding compounds; format: physicochemical; details: for λem (nm): emission maximum, excited at wavelength of maximum absorption, Ca++ buffers 0-39 μM; for λex (nm): wavelength of maximum absorption, 39 μM Ca++ buffer, 100 mM KCl, 30 mM MOPS pH7.2 (Compounds 5, 10, 13), Zero Ca++ buffer (Compound 18), npH2O (Compound 21)
Procedure: (§1) In all cases, samples were dissolved in nanopure(np)-H2O at concentrations of approximately 1 mg/mL, except Compound 18 which was dissolved in 1:1 DMSO:npH2O. Non-quantitative aliquots of these solutions were added to approximately 3 mL of 39 μM Ca++ buffer, 100 mM KCl, 30 mM MOPS (pH7.2) (Compounds 5, 10, 13), Zero Ca++ buffer, 100 mM KCl, 30 mM MOPS (pH7.2) (Compound 18), or npH2O (Compound 21). Absorption spectra were obtained using a Perkin Elmer UV/Vis Spectrometer (Lambda 35 or 40). Fluorescence samples were prepared by pipetting aliquots of respective stock solutions to a series of disposable cuvettes containing 2 mL of Ca++ buffers from Calcium Calibration Buffer Kit #2 (Invitrogen cat.#3009) (0-39 μM). The final concentration of compound ranged from approximately 0.1-4 μM. Samples were excited at their wavelength of maximum absorption and spectra were obtained using a Perkin Elmer Luminescence Spectrometer (LS50B, LS55). Emission intensities were recorded at the respective maxima and Kd values calculated.

[2] = Calcium binding: fluorescence titration in Ca++ buffers (0-39 μM), Kd calculated; details: fluorescence change on calcium binding
Procedure: as §1

SMILES	λem (nm) [1] [nm]	λex (nm) [1] [nm]	ΔF = Fb/Fo [2]
Cc1ccc(N(CC(=O)[O-])CC(=O)[O-])c(OCCOc2cc(CNC(=O)c3cc(=O)cc4oc5cc(N(C)C)ccc5nc3-4)ccc2N(CC(=O)[O-])CC(=O)[O-])c1.[Li+].[Li+].[Li+].[Li+] [Compound 21]	641	612	11
Cc1ccc(N(CC(=O)[O-])CC(=O)[O-])c(OCCOc2cc(CNC(=O)c3c4oc5cc(O)ccc5nc-4ccc3=O)ccc2N(CC(=O)[O-])CC(=O)[O-])c1.[Li+].[Li+].[Li+].[Li+] [Compound 18]	589	550	5
Cc1ccc(N(CC(=O)[O-])CC(=O)[O-])c(OCCOc2cc(CNS(=O)(=O)c3cccc4c(N(C)C)cccc34)ccc2N(CC(=O)[O-])CC(=O)[O-])c1.[K+].[K+].[K+].[K+] [Compound 5]	549	331	3
Cc1ccc(N(CC(=O)[O-])CC(=O)[O-])c(OCCOc2cc(CN3C(=O)c4cccc5c(N)ccc(c45)C3=O)ccc2N(CC(=O)[O-])CC(=O)[O-])c1.[K+].[K+].[K+].[K+] [Compound 13]	550	432	12
